Columns and labels:
[1] = Cell cytotoxicity assay (MTS), CC90 as reported in Table 1, cell line not stated; type: cell-based; conditions: human; cell line not given
Description: Cell cytotoxicity assays. Each compound (serially diluted from 100 μM) was added to Huh7 (2×10^3 cells/well), HepG2 (2×10^3 cells/well), BxPC3 (2×10^3 cells/well), or CEM (5×10^3 cells/well) cells and allowed to incubate for 8 days at 37° C. A medium only control was used to determine the minimum absorbance value […]. At the end of the growth period, MTS dye from the CellTiter 96 Aqueous One Solution Cell Proliferation Assay kit (Promega) was added to each well and the plate was incubated for an additional 2 hours. The absorbance at 490 nm was read with a Victor3 plate reader (Perkin Elmer) using the medium only control wells as blanks. The 90% inhibition value (CC90) was determined by comparing the absorbance in wells containing cells and test compound to untreated cell control wells.

[2] = tested on: HCV Replicon 1b; assay: HCV inhibition assay, HCV replicon 1b (Clone A or ET-lunet cells; RT-PCR or luciferase reporter); type: cell-based; conditions: Hepatitis C virus, 96 h, HCV replicon 1b; 4 days incubation; read-out: Replicon 1b potency EC90
Description: HCV inhibition assay. Clone A or ET-lunet cells were seeded at a density of 1500 or 3000 cells per well in a 96-well plate, respectively. Test compounds serially diluted in culture medium without G418 were added to cells so that the final DMSO concentration was 0.5%. Plates were incubated at 37° C. in a 5% CO2 atmosphere for 4 days. Inhibition of HCV RNA replication was determined by real time PCR (RT-PCR) or by measuring the levels of luminescence expressed via the luciferase reporter gene encoded within the ET replicon. Briefly, for the RT-PCR assay, total RNA was extracted using the RNeasy-96 kit as recommended by the manufacturer (Qiagen, Valencia, Calif.), reversed transcribed into cDNA, and amplified using primer and probe mix for HCV 5′-NTR RNA and human ribosomal RNA (rRNA) in a one-step RT-PCR reaction as described previously (50). A relative quantification method was used to determine the extent of inhibition. The threshold cycle (Ct) of rRNA was subtracted from the Ct of HCV RNA (ΔCt). The average ΔCt of the DMSO cell controls was then subtracted from the ΔCt of the compound treated sample (ΔΔCt). Percent inhibition was determined by using the following equation: %=(1−(2^−ΔΔC^t))×100. For the luciferase-based replicon assay, luminescence was measured by using a Victor3 plate reader (Perkin-Elmer, Boston, Mass.) following the addition of Bright-Glo reagent as recommended by the manufacturer (Promega, Madison, Wis.). Percent inhibition of HCV replication was determined by comparing the change in luminescence of the drug treated wells versus the DMSO cell controls. EC50 and EC90 values, the concentrations at which 50% and 90% inhibition were achieved, were determined using the GraphPad Prism software (San Diego, Calif.).

## CC(C)C[C@H]1CN(C(=O)C#Cc2ccccc2)[C@@H](CC(C)C)C(=O)N1 [Compound 114]
[1]
  CC90 at 8 days: > 10 µM
[2]
  EC90: 4.08 µM

## Cc1ccc(C#CC(=O)N2C[C@H](CC(C)C)NC(=O)[C@@H]2CC(C)C)cc1 [Compound 115]
[1]
  CC90 at 8 days: > 10 µM
[2]
  EC90: 5.01 µM

## CC(C)C[C@H]1CN(C(=O)C#Cc2ccc(F)c(F)c2)[C@@H](CC(C)C)C(=O)N1 [Compound 116]
[1]
  CC90 at 8 days: > 10 µM
[2]
  EC90: 9.65 µM

## CC(C)C[C@H]1CN(C(=O)C#Cc2ccc(F)cc2F)[C@@H](CC(C)C)C(=O)N1 [Compound 117]
[1]
  CC90 at 8 days: > 10 µM
[2]
  EC90: 2.66 µM

## COc1ccc(C#CC(=O)N2C[C@H](CC(C)C)NC(=O)[C@@H]2CC(C)C)cc1 [Compound 118]
[1]
  CC90 at 8 days: > 10 µM
[2]
  EC90: 2.96 µM

## CC(C)C[C@H]1CN(C(=O)C#Cc2ccc(Cl)cc2F)[C@@H](CC(C)C)C(=O)N1 [Compound 119]
[1]
  CC90 at 8 days: > 10 µM
[2]
  EC90: 6.2 µM

## CC(C)C[C@H]1CN(C(=O)C#Cc2ccc(Cl)cc2)[C@@H](CC(C)C)C(=O)N1 [Compound 120]
[1]
  CC90 at 8 days: > 10 µM
[2]
  EC90: 9.16 µM

## CC(C)C[C@H]1CN(C(=O)C#Cc2cc(F)c(F)c(F)c2)[C@@H](CC(C)C)C(=O)N1 [Compound 121]
[1]
  CC90 at 8 days: > 10 µM
[2]
  EC90: 3.23 µM

## CC(C)C[C@H]1CN(C(=O)C#Cc2ccc(C(F)(F)F)cc2)[C@@H](CC(C)C)C(=O)N1 [Compound 122]
[1]
  CC90 at 8 days: > 10 µM
[2]
  EC90: 7.54 µM

## CC(C)C[C@H]1CN(C(=O)c2cc(-c3ccc(F)c(F)c3)on2)[C@@H](CC(C)C)C(=O)N1 [Compound 123]
[1]
  CC90 at 8 days: > 10 µM
[2]
  EC90: 0.97 µM

## CC(C)C[C@H]1CN(C(=O)c2cc(-c3ccc(F)cc3)on2)[C@@H](CC(C)C)C(=O)N1 [Compound 124]
[1]
  CC90 at 8 days: > 10 µM
[2]
  EC90: 0.11 µM

## CC(C)C[C@H]1CN(C(=O)c2cc(-c3ccc(Cl)cc3)on2)[C@@H](CC(C)C)C(=O)N1 [Compound 125]
[1]
  CC90 at 8 days: > 10 µM
[2]
  EC90: 0.26 µM

## Cc1ccc(-c2cc(C(=O)N3C[C@H](CC(C)C)NC(=O)[C@@H]3CC(C)C)no2)cc1 [Compound 126]
[1]
  CC90 at 8 days: > 10 µM
[2]
  EC90: 1.66 µM

## COc1ccc(-c2cc(C(=O)N3C[C@H](CC(C)C)NC(=O)[C@@H]3CC(C)C)no2)cc1 [Compound 127]
[1]
  CC90 at 8 days: > 10 µM
[2]
  EC90: 1.14 µM

## CC(C)C[C@H]1CN(C(=O)c2cc(-c3cccc(F)c3)on2)[C@@H](CC(C)C)C(=O)N1 [Compound 128]
[1]
  CC90 at 8 days: > 10 µM
[2]
  EC90: 0.84 µM

## CC(C)C[C@H]1CN(C(=O)c2cc(-c3cccc(Cl)c3)on2)[C@@H](CC(C)C)C(=O)N1 [Compound 129]
[1]
  CC90 at 8 days: > 10 µM
[2]
  EC90: 2.93 µM

## COc1cccc(-c2cc(C(=O)N3C[C@H](CC(C)C)NC(=O)[C@@H]3CC(C)C)no2)c1 [Compound 130]
[1]
  CC90 at 8 days: > 10 µM
[2]
  EC90: 5.75 µM

## COc1ccccc1-c1cc(C(=O)N2C[C@H](CC(C)C)NC(=O)[C@@H]2CC(C)C)no1 [Compound 131]
[1]
  CC90 at 8 days: > 10 µM
[2]
  EC90: 3.49 µM

## CC(C)C[C@H]1CN(C(=O)c2cc(-c3ccc(C(C)(C)C)cc3)on2)[C@@H](CC(C)C)C(=O)N1 [Compound 132]
[1]
  CC90 at 8 days: > 10 µM
[2]
  EC90: 4.33 µM

## CC(C)C[C@H]1CN(C(=O)c2cc(-c3ccc(F)cc3F)on2)[C@@H](CC(C)C)C(=O)N1 [Compound 133]
[1]
  CC90 at 8 days: > 10 µM
[2]
  EC90: 0.6 µM

## CC(C)C[C@H]1CN(C(=O)c2cc(-c3ccc(Cl)c(F)c3)on2)[C@@H](CC(C)C)C(=O)N1 [Compound 134]
[1]
  CC90 at 8 days: > 10 µM
[2]
  EC90: 0.89 µM

## CC(C)C[C@H]1CN(C(=O)c2cc(-c3ccc(Br)cc3)on2)[C@@H](CC(C)C)C(=O)N1 [Compound 135]
[1]
  CC90 at 8 days: > 10 µM
[2]
  EC90: 0.47 µM

## CC(C)C[C@H]1CN(C(=O)c2cc(-c3ccc(C#N)cc3)on2)[C@@H](CC(C)C)C(=O)N1 [Compound 136]
[1]
  CC90 at 8 days: > 10 µM
[2]
  EC90: 1.53 µM

## CC(C)C[C@H]1C(=O)N[C@@H](C2CCCC2)CN1C(=O)c1cc(-c2ccc(C#N)cc2)on1 [Compound 137]
[1]
  CC90 at 8 days: > 10 µM
[2]
  EC90: 0.8 µM

## CC(C)C[C@H]1CN(C(=O)c2cc(-c3cccc(OC(F)(F)F)c3)on2)[C@@H](CC(C)C)C(=O)N1 [Compound 138]
[1]
  CC90 at 8 days: > 10 µM
[2]
  EC90: 7.04 µM

## CC(C)C[C@H]1CN(C(=O)c2cc(-c3ccc(C(=O)N(C)C)cc3)on2)[C@@H](CC(C)C)C(=O)N1 [Compound 139]
[1]
  CC90 at 8 days: > 10 µM
[2]
  EC90: > 10 µM

## CC(C)C[C@H]1CN(C(=O)c2cc(-c3ccc(N(C)C)cc3)on2)[C@@H](CC(C)C)C(=O)N1 [Compound 140]
[1]
  CC90 at 8 days: > 10 µM
[2]
  EC90: > 10 µM

## CC(C)C[C@H]1CN(C(=O)c2cc(-c3ccc(F)c(Cl)c3)on2)[C@@H](CC(C)C)C(=O)N1 [Compound 141]
[1]
  CC90 at 8 days: > 10 µM
[2]
  EC90: 1.78 µM

## CC(C)C[C@H]1CN(C(=O)c2cc(-c3ccccc3F)on2)[C@@H](CC(C)C)C(=O)N1 [Compound 142]
[1]
  CC90 at 8 days: > 10 µM
[2]
  EC90: 2.01 µM

## CC(C)C[C@H]1CN(C(=O)c2cc(-c3ccc(Cl)cc3F)on2)[C@@H](CC(C)C)C(=O)N1 [Compound 143]
[1]
  CC90 at 8 days: > 10 µM
[2]
  EC90: 1.21 µM

## CC(C)C[C@H]1CN(C(=O)c2cc(-c3ccc(F)cc3)no2)[C@@H](CC(C)C)C(=O)N1 [Compound 144]
[1]
  CC90 at 8 days: > 10 µM
[2]
  EC90: 0.33 µM

## CC(C)C[C@H]1C(=O)N[C@@H](c2ccccc2)CN1C(=O)c1cc(-c2ccc(F)cc2)no1 [Compound 145]
[1]
  CC90 at 8 days: > 10 µM
[2]
  EC90: 0.23 µM

## CC(C)C[C@H]1C(=O)N[C@@H](C(C)C)CN1C(=O)c1cc(-c2ccc(F)cc2)no1 [Compound 146]
[1]
  CC90 at 8 days: > 10 µM
[2]
  EC90: 0.73 µM

## CSC[C@H]1CN(C(=O)c2cc(-c3ccc(F)cc3)no2)[C@@H](CC(C)C)C(=O)N1 [Compound 147]
[1]
  CC90 at 8 days: > 10 µM
[2]
  EC90: 1.27 µM

## CC(C)C[C@H]1CN(C(=O)c2nc(-c3ccc(F)cc3)no2)[C@@H](CC(C)C)C(=O)N1 [Compound 148]
[1]
  CC90 at 8 days: > 10 µM
[2]
  EC90: 0.37 µM

## CCC[C@H]1CN(C(=O)c2nc(-c3ccc(F)cc3)no2)[C@@H](CC(C)C)C(=O)N1 [Compound 149]
[1]
  CC90 at 8 days: > 10 µM
[2]
  EC90: 0.05 µM

## CCC[C@H]1CN(C(=O)c2nc(-c3ccccc3)no2)[C@@H](CC(C)C)C(=O)N1 [Compound 150]
[1]
  CC90 at 8 days: > 10 µM
[2]
  EC90: 0.59 µM

## CC(C)C[C@H]1C(=O)N[C@@H](c2ccccc2)CN1C(=O)c1nc(-c2ccc(F)cc2)no1 [Compound 151]
[1]
  CC90 at 8 days: > 10 µM
[2]
  EC90: 0.04 µM

## CC(C)C[C@H]1C(=O)N[C@@H](C2CCCC2)CN1C(=O)c1nc(-c2ccc(F)cc2)no1 [Compound 152]
[1]
  CC90 at 8 days: > 10 µM
[2]
  EC90: 0.11 µM

## CC(C)C[C@H]1C(=O)N[C@@H](C(C)C)CN1C(=O)c1nc(-c2ccc(F)cc2)no1 [Compound 153]
[1]
  CC90 at 8 days: > 10 µM
[2]
  EC90: 0.22 µM

## CSC[C@H]1CN(C(=O)c2nc(-c3ccc(F)cc3)no2)[C@@H](CC(C)C)C(=O)N1 [Compound 154]
[1]
  CC90 at 8 days: > 10 µM
[2]
  EC90: 0.78 µM

## CC(C)C[C@H]1CN(C(=O)c2cc(-c3ccc([N+](=O)[O-])cc3)on2)[C@@H](CC(C)C)C(=O)N1 [Compound 155]
[1]
  CC90 at 8 days: > 10 µM
[2]
  EC90: 2.6 µM

## CC(C)C[C@H]1C(=O)N[C@@H](C2CCCCC2)CN1C(=O)c1cc(-c2ccc(F)cc2F)on1 [Compound 156]
[1]
  CC90 at 8 days: > 10 µM
[2]
  EC90: 1.15 µM

## CC(C)C[C@H]1C(=O)N[C@@H](C2CCCC2)CN1C(=O)c1cc(-c2ccc(F)cc2F)on1 [Compound 157]
[1]
  CC90 at 8 days: > 10 µM
[2]
  EC90: 0.49 µM

## CCC[C@H]1CN(C(=O)c2cc(-c3ccc(Cl)c(F)c3)on2)[C@@H](CC(C)C)C(=O)N1 [Compound 158]
[1]
  CC90 at 8 days: > 10 µM
[2]
  EC90: 0.44 µM

## CC(C)C[C@H]1C(=O)N[C@@H](C2CCCCC2)CN1C(=O)c1cc(-c2ccc(Cl)c(F)c2)on1 [Compound 159]
[1]
  CC90 at 8 days: > 10 µM
[2]
  EC90: 0.71 µM

## CC(C)C[C@H]1C(=O)N[C@@H](C2CCCC2)CN1C(=O)c1cc(-c2ccc(Cl)c(F)c2)on1 [Compound 160]
[1]
  CC90 at 8 days: > 10 µM
[2]
  EC90: 0.41 µM

## CCC[C@H]1CN(C(=O)c2cc(-c3ccc(F)cc3)on2)[C@@H](CC(C)C)C(=O)N1 [Compound 161]
[1]
  CC90 at 8 days: > 10 µM
[2]
  EC90: 0.07 µM

## CC(C)C[C@H]1C(=O)N[C@@H](C2CCCCC2)CN1C(=O)c1cc(-c2ccc(F)cc2)on1 [Compound 162]
[1]
  CC90 at 8 days: > 10 µM
[2]
  EC90: 1.8 µM
